Data from patent US9718762B2, “Insecticidal compounds” (Syngenta Participations AG, priority 2013, dated 2017).

How the values were obtained:
Format in all cases: in vivo
Spodoptera littoralis = Spodoptera littoralis (Egyptian cotton leafworm) cotton leaf disc spray test; conditions: foliar, 72 h, 200 ppm spray on cotton leaf discs, L1 larvae, 3 days after treatment, mortality, feeding behavior, growth regulation
Excerpt: Spodoptera littoralis (Egyptian Cotton Leafworm): Cotton leaf discs were placed on agar in a 24-well microtiter plate and sprayed with test solutions at an application rate of 200 ppm. After drying, the leaf discs were infested with 5 L1 larvae. The samples were checked for mortality, feeding behavior, and growth regulation 3 days after treatment (DAT).

Heliothis virescens = Heliothis virescens (tobacco budworm) egg test on artificial diet; conditions: 96 h, 200 ppm (concentration in well 18 ppm), eggs on artificial diet, 4 days, egg mortality, larval mortality, growth regulation
Method: Heliothis virescens (Tobacco Budworm): Eggs (0-24 h old) were placed in 24-well microtiter plate on artificial diet and treated with test solutions at an application rate of 200 ppm (concentration in well 18 ppm) by pipetting. After an incubation period of 4 days, samples were checked for egg mortality, larval mortality, and growth regulation.

Plutella xylostella = Plutella xylostella (diamond back moth) artificial diet test; conditions: 144 h, 200 ppm (concentration in well 18 ppm), L2 larvae, 6 days, larval mortality, growth regulation
Method: Plutella xylostella (Diamond Back Moth): 24-well microtiter plate (MTP) with artificial diet was treated with test solutions at an application rate of 200 ppm (concentration in well 18 ppm) by pipetting. After drying, the MTP's were infested with L2 larvae (7-12 per well). After an incubation period of 6 days, samples were checked for larval mortality and growth regulation.

Diabrotica balteata = Diabrotica balteata (corn root worm) artificial diet test; conditions: 120 h, 200 ppm (concentration in well 18 ppm), L2 larvae, 5 days, larval mortality, growth regulation
Method: Diabrotica balteata (Corn Root Worm): A 24-well microtiter plate (MTP) with artificial diet was treated with test solutions at an application rate of 200 ppm (concentration in well 18 ppm) by pipetting. After drying, the MTP's were infested with L2 larvae (6-10 per well). After an incubation period of 5 days, samples were checked for larval mortality and growth regulation.

Thrips tabaci = Thrips tabaci (onion thrips) sunflower leaf disc spray test; conditions: foliar, 168 h, 200 ppm spray on sunflower leaf discs, population of mixed ages, 7 days, mortality
Method: Thrips tabaci (Onion Thrips): Sunflower leaf discs were placed on agar in a 24-well microtiter plate and sprayed with test solutions at an application rate of 200 ppm. After drying, the leaf discs were infested with an […] population of mixed ages. After an incubation period of 7 days, samples were checked for mortality.

Tetranychus urticae = Tetranychus urticae (two-spotted spider mite) bean leaf disc spray test; conditions: foliar, 192 h, 200 ppm spray on bean leaf discs, mite populations of mixed ages, 8 days, egg, larval and adult mortality
Excerpt: Tetranychus urticae (Two-Spotted Spider Mite): Bean leaf discs on agar in 24-well microtiter plates were sprayed with test solutions at an application rate of 200 ppm. After drying, the leaf discs are infested with mite populations of mixed ages. 8 days later, discs are checked for egg mortality, larval mortality, and adult mortality.

Myzus persicae = Myzus persicae (green peach aphid) sunflower leaf disc spray test; conditions: foliar, 144 h, 200 ppm spray on sunflower leaf discs, aphid population of mixed ages, 6 DAT, mortality
Method: Myzus persicae (Green Peach Aphid): Sunflower leaf discs were placed on agar in a 24-well microtiter plate and sprayed with test solutions at an application rate of 200 ppm. After drying, the leaf discs were infested with an […] population of mixed ages. After an incubation period of 6 DAT, samples were checked for mortality.

Measured: pest or weed control at 200 ppm

CCN(C(=O)c1ccc(C#N)cc1)c1cccc(C(=O)Nc2c(Cl)cc(C(F)(C(F)(F)F)C(F)(F)F)cc2Br)c1OC [Compound 1, N-[2-bromo-6-chloro-4-[1,1,1,2,3,3,3-heptafluoro-prop-2-yl]phenyl]-3-[(4-cyanobenzoyl)-ethyl-amino]-2-methoxy-benzamide]
≥ 80%: all assays above

CCN(C(=O)c1ccc(C#N)cc1)c1cccc(C(=O)Nc2c(Cl)cc(C(F)(C(F)(F)F)C(F)(F)F)cc2Cl)c1OC [Compound 2]
≥ 80%: all assays above

CCc1cc(C(F)(C(F)(F)F)C(F)(F)F)cc(C)c1NC(=O)c1cccc(N(CC)C(=O)c2ccc(C#N)cc2)c1OC [Compound 3]
≥ 80%: all assays above

COc1c(C(=O)Nc2c(Cl)cc(C(F)(C(F)(F)F)C(F)(F)F)cc2Br)cccc1N(C)C(=O)c1ccc(C#N)cc1 [Compound 4]
≥ 80%: all assays above

CCN(C(=O)c1ccc(C#N)cc1)c1cccc(C(=O)Nc2c(Br)cc(C(F)(C(F)(F)F)C(F)(F)F)cc2Br)c1OC [Compound 5]
≥ 80%: all assays above

COc1c(C(=O)Nc2c(Br)cc(C(F)(C(F)(F)F)C(F)(F)F)cc2Br)cccc1N(C)C(=O)c1ccc(C#N)cc1 [Compound 6]
≥ 80%: all assays above

COc1c(C(=O)Nc2c(Cl)cc(C(F)(C(F)(F)F)C(F)(F)F)cc2Cl)cccc1N(C)C(=O)c1ccc(C#N)cc1 [Compound 7]
≥ 80%: all assays above

CCc1cc(C(F)(C(F)(F)F)C(F)(F)F)cc(Br)c1NC(=O)c1cccc(N(CC)C(=O)c2ccc(C#N)cc2)c1 [Compound 8]
not listed: Spodoptera littoralis
≥ 80%: all other assays above

CCc1cc(C(F)(C(F)(F)F)C(F)(F)F)cc(CC)c1NC(=O)c1cccc(N(CC)C(=O)c2ccc(C#N)cc2)c1OC [Compound 9]
≥ 80%: all assays above

CCc1cc(C(F)(C(F)(F)F)C(F)(F)F)cc(Br)c1NC(=O)c1cccc(N(C)C(=O)c2ccc(C#N)cc2)c1OC [Compound 10]
≥ 80%: all assays above

CCc1cc(C(F)(C(F)(F)F)C(F)(F)F)cc(Cl)c1NC(=O)c1cccc(N(C)C(=O)c2ccc(C#N)cc2)c1OC [Compound 11]
≥ 80%: all assays above

CCc1cc(C(F)(C(F)(F)F)C(F)(F)F)cc(Cl)c1NC(=O)c1cccc(N(CC)C(=O)c2ccc(C#N)cc2)c1OC [Compound 12]
≥ 80%: all assays above
